We go through 15 molecules from patent EP4700025A1, “AMIDE COMPOUND, PHARMACEUTICAL COMPOSITION COMPRISING SAME, AND USE THEREOF” (Suzhou Genhouse Bio Co., Ltd., priority 2023, dated 2024).

One may read the EC50 as the concentration needed to bring the measured effect to its halfway point. Low values mean higher potency in that assay, high ones lower potency in that assay. One may read the AUC(0-t) as the area under the concentration-time curve up to a stated or last time point. Higher therefore signals high exposure. Broadly, the Cmax is the peak of the concentration-time curve. Usually AUC(0-inf) stands for the area under the concentration-time curve extrapolated to infinity. Read a low AUC(0-inf) as low exposure. As a reminder, the Tmax is the time at which the peak concentration occurs.

One series concerns HCT-116. The experiment in a line: CCK8 proliferation inhibition, HCT-116. The following applies: Homo sapiens, 192 h, CCK8, 8 days after drug treatment. The class given is cell-based. As to the method:
(§1) The above normally growing cells were digested with a cell trypsinization solution, centrifuged, counted, and seeded into a 96-well plate at an appropriate cell density (2000 cells/well) at 100 µL/well. The next day after cell seeding, the compounds at different concentrations were added to the wells. Three replicate wells were set for each concentration point, and a corresponding DMSO negative control group was also set. CCK8 solution was added to each well 8 days after drug treatment. The plate was incubated at 37 °C for a period of time (OD450 of the vehicle group reached 1.0 or higher) before the absorbance at 450 nm was read using a microplate reader. The inhibition rates were calculated, and the EC50 values were determined by fitting using the GraphPad Prism 7.0 software. Table 2. EC50 values of compounds at cellular level

In a further series the test system is HCT-116-MTAP^-/-. Nature of the series: CCK8 proliferation inhibition, HCT-116-MTAP^-/-. The class given is cell-based. Particulars: Homo sapiens, 192 h; HCT-116-MTAP^-/- (MTAP-deficient); CCK8, 8 days after drug treatment. As to the method:
as §1

Series [1] deals with SDMA. Nature of the series: SDMA Inhibition Assay in HCT-116 cells. In kind it is cell-based. Particulars: Homo sapiens, HCT-116, 96 hours. The method, then: (§2) The next day, the cells were treated with the compounds at different concentrations (with an initial concentration of 10 µM, 5-fold dilution, 9 concentration gradients). After 96 hours, the culture medium was pipetted out and the cells were washed 2 times with 100 µL of PBS. The cells were then fixed with 4% paraformaldehyde and incubated at room temperature for 20 min. The fixative solution was discarded, and the cells were washed with PBS. 150 µL of specialized blocking solution (containing 1% Triton-100) was added to each well for blocking at room temperature for 2 hours, and the plate was washed with PBS to remove excess blocking solution. […] The cells were incubated at 4 °C overnight. The next day, the cells were separately washed 2 times with 1× PBST. […] The cells were incubated at room temperature for 2 hours. The cells were washed 2 times with 1× PBST and 1 time with PBS. Fluorescence signals at 700 nm and 800 nm were separately detected using a Li-COR Odyssey two-color near-infrared laser imager. The inhibition rates were calculated, and the EC50 values were determined by fitting using the GraphPad Prism 7.0 software. Table 3. Inhibition of SDMA by test compounds

Series [2] relates to SDMA. The experiment in a line: SDMA Inhibition Assay in HCT-116-MTAP^-/- cells. Particulars: Homo sapiens, 96 hours. In kind it is cell-based. As to the method: as §2
The test system of series [3] is SDMA. The experiment in a line: SDMA Inhibition Assay in A549 cells. The class given is cell-based. Particulars: Homo sapiens, A549, 96 hours. As to the method: as §2
A short description of series [4]: Pharmacokinetic assay in mice. In kind it is in vivo, Balb/c mice. Particulars: mouse; for MRT inf: read-out: MRT(0-∞). The method, then: Eighteen male Balb/c mice aged 6 to 8 weeks were randomly divided into 2 groups (IV group and PO group). The corresponding compounds were administered to the animals in the IV group by tail intravenous injection at 2 mg/kg, and the corresponding compounds were administered to the animals in the PO group by oral gavage at 10 mg/kg or 100 mg/kg. The animals in the IV group were allowed free access to food and water, and the animals in the PO group were fasted overnight before administration and were fed 4 h after administration. Throughout the experiment, the animals were allowed free access to water. Plasma samples were separately collected at 0.083 h (only group IV), 0.25 h, 0.5 h, 1 h, 2 h, 4 h, 8 h, and 24 h after administration. About 100 µL of blood was collected from the orbit of the animal, placed into a 1.5 mL anticoagulation centrifuge tube, and centrifuged at 8000 rpm and 4 °C for 10 min. The upper plasma sample was transferred to an EP tube. The plasma samples were stored in a refrigerator at -80 °C until sample analysis. Pharmacokinetic parameters of the drug were calculated based on the drug concentration-time data, including the peak concentration Cmax, peak time Tmax, clearance rate CL, steady state apparent volume of distribution Vss, area under drug-time curve AUC, elimination half-life t1/2, bioavailability, and the like. Data below the 80% lower limit of quantification were excluded from the calculation of pharmacokinetic parameters.

Setting [5] is: male, Balb/c, plasma, 2 mg/kg, IV 2mpk.
Setting [6] is: male, Balb/c, plasma, 10 mg/kg, PO 10mpk.

The structures appear in SMILES notation. Like-named read-outs stand apart in the source and are kept apart here. A value given as a limit tells only on which side of the number the result lay.

For `CC1OCc2c1c(N)nc1cc(F)c(C(=O)N(Cc3ccc4c(c3)OC(F)(F)O4)C3CC3)cc21` (racemic) [Example I-36], the EC50 with HCT-116 was over 10000 nM; with HCT-116-MTAP^-/-, 24.2 nM.

Turning to `Cn1ncc2c(N)nc3cnc(C(=O)N4CCN(C5(C)CC5)CC4c4ccc5c(c4)OC(F)(F)O5)cc3c21` (racemic) [Example I-113], the EC50 with HCT-116 is over 10000 nM; with HCT-116-MTAP^-/-, 50.5 nM; with SDMA [1], 403 nM; in the series on SDMA [2], 4.1 nM.

In the case of `Cn1ncc2c(N)nc3ccc(C(=O)N4CCOCC4c4ccc5c(c4)OC(F)(F)O5)cc3c21` (single isomer, unassigned) [I-4 (PEAK1)], the concentration giving a half-maximal response (EC50) amounted to 6410 nM in the series with HCT-116; 47.7 nM with HCT-116-MTAP^-/-; 906 nM in the series with SDMA [1]; 9.1 nM in the series on SDMA [2]; 6.1 nM in the series with SDMA [3].

Regarding `Nc1nc2cnc(C(=O)N3CCOC[C@@H]3c3ccc(C(F)(F)F)cc3)cc2c2c1COC2` [Control compound B, reference compound], the AUC(0-t) in series [4] (setting [5]) turned out to be 6.9 µM·h. Besides, in series [4] (setting [6]), the AUC(0-t) worked out at 26.5 µM·h and the Cmax was 5.76 µM.

Take `Cn1ncc2c(N)nc3cc(F)c(C(=O)N4CCOCC4c4ccc5c(c4)OC(F)(F)O5)cc3c21` (centres unmarked) [Example I-3]: the EC50 with HCT-116 amounted to 2370 nM; with HCT-116-MTAP^-/-, 8.4 nM; in the series on SDMA [1], 101 nM; in the series with SDMA [2], 0.6 nM; with SDMA [3] it was 2.1 nM.

`Cn1ncc2c(N)nc3ccc(C(=O)N4CCOCC4c4ccc5c(c4)OC(F)(F)O5)cc3c21` (centres unmarked) [Example I-4]: the EC50 in the series on HCT-116 is over 10000 nM; with HCT-116-MTAP^-/-, 27 nM; in the series with SDMA [1], 381 nM; with SDMA [2], 7.4 nM; in the series with SDMA [3], 7 nM.

With `CCN(Cc1ccc2c(c1)OC(F)(F)O2)C(=O)c1ccc2nc(N)c3cnn(C)c3c2c1` [Example I-5], in the series with HCT-116, the response was half-maximal at 2360 nM (EC50). Further, the EC50 in the series with HCT-116-MTAP^-/- came out at 4.7 nM. For the same molecule, in the series with SDMA [1], a half-maximal effect (EC50) was put at 200 nM. The molecule also had an EC50 in the series on SDMA [2] of 2.1 nM. Moreover, in the series with SDMA [3], the EC50 is 2.6 nM. Besides, in series [4] (setting [5]), the AUC(0-inf) came out at 3.62 µM·h, the AUC(0-t) amounted to 3.32 µM·h, the C0 was 1.86 µM and the MRT inf was found to be 2.9 h. Also, in series [4] (male, Balb/c, plasma, 2 mg/kg, IV 2mpk, read-out: Vz), the Vd came to 4.4 L/kg. For the same molecule, in series [4] (setting [6]), the AUC(0-inf) is 12.4 µM·h, the AUC(0-t) is 12.4 µM·h, the Cmax is 1.93 µM and the Tmax is 1 h. Moreover, in series [4] (setting [6]), the MRT inf amounted to 4.8 h. For the same molecule, in series [4] (IV 2mpk), the CLz came out at 21.7 mL/min/kg, the “R_AUC(t/∞)” value is reported as 91.7% and the t1/2z is listed as 2.4 h. Further, in series [4] (PO 10mpk), the “R_AUC(t/∞)” value worked out at 99.9% and the t1/2z is given as 2.4 h. Also, the F in series [4] (PO 10mpk vs IV 2mpk) was found to be 68.6%.

For `Cn1ncc2c(N)nc3ccc(C(=O)N(Cc4ccc5c(c4)OC(F)(F)O5)C4CC4)cc3c21` [Example I-15], the EC50 stood at 5760 nM in the series on HCT-116; 34 nM with HCT-116-MTAP^-/-; 628 nM in the series on SDMA [1]; 10.3 nM with SDMA [2]; 7.6 nM in the series with SDMA [3].

Regarding `CN(Cc1ccc2c(cnn2C)c1)C(=O)c1cc2c(cc1F)nc(N)c1cnn(C)c12` [Example I-18], the EC50 in the series with HCT-116 came to 3440 nM; with HCT-116-MTAP^-/-, 18.3 nM; with SDMA [1] it was 1020 nM; in the series on SDMA [2], 3.1 nM; with SDMA [3] it was 3.1 nM.

For the molecule `CN(Cc1ccc2cnn(C)c2c1)C(=O)c1cc2c(cc1F)nc(N)c1cnn(C)c12` [Example I-19], the EC50 in the series with HCT-116 was over 10000 nM; in the series with HCT-116-MTAP^-/- it was 48.2 nM; in the series with SDMA [1], 828 nM; in the series with SDMA [2], 6.6 nM; in the series on SDMA [3], 7.2 nM.

Turning to `CN(Cc1ccc2nn(C)cc2c1)C(=O)c1cc2c(cc1F)nc(N)c1cnn(C)c12` [Example I-20], the concentration giving a half-maximal response (EC50) was over 10000 nM in the series on HCT-116; 16.1 nM with HCT-116-MTAP^-/-; 862 nM in the series on SDMA [1]; 5.5 nM in the series with SDMA [2]; 9.2 nM in the series on SDMA [3].

Take `Cn1ncc2c(N)nc3cc(F)c(C(=O)N(CCN4CCOCC4)Cc4ccc5c(c4)OC(F)(F)O5)cc3c21` [Example I-21]: the EC50 in the series on HCT-116 is 2610 nM; in the series on HCT-116-MTAP^-/- it was 22 nM; in the series on SDMA [1], 292 nM; in the series on SDMA [2], 3 nM; with SDMA [3] it was 1.9 nM.

Turning to `CN1CCN(CCN(Cc2ccc3c(c2)OC(F)(F)O3)C(=O)c2cc3c(cc2F)nc(N)c2cnn(C)c23)CC1` [Example I-31], the EC50 in the series with HCT-116 was found to be 2710 nM; in the series on HCT-116-MTAP^-/- it was 35.8 nM; with SDMA [1], 1120 nM; with SDMA [2], 8.7 nM; in the series with SDMA [3], 6.7 nM.

As for `Nc1nc2cnc(C(=O)N3CCOC[C@@H]3c3ccc4c(c3)OC(F)(F)O4)cc2c2c1COC2` [Example I-109], the EC50 was 4850 nM in the series on HCT-116; 19.2 nM with HCT-116-MTAP^-/-; 938 nM in the series with SDMA [1]; 15 nM in the series with SDMA [2]; 2.8 nM in the series on SDMA [3]. The AUC(0-t) in series [4] (plasma, 2 mg/kg, IV 2mpk) worked out at 13.4 µM·h; in series [4] (plasma, 10 mg/kg, PO 10mpk), 44.1 µM·h. The same molecule displayed a Cmax in series [4] (plasma, 10 mg/kg, PO 10mpk) of 14.7 µM.

For the molecule `Cn1ncc2c(N)nc3cnc(C(=O)N4CC5(CC5)OCC4c4ccc5c(c4)OC(F)(F)O5)cc3c21` (centres unmarked) [Example I-110], the EC50 with SDMA [1] was over 1000 nM; in the series on SDMA [2], 36 nM; with SDMA [3], 19 nM.
